# Experimental data taken from patent US12268665B2, “Combination of immunotherapies with MDM2 inhibitors” (ASCENTAGE PHARMA (SUZHOU) CO., LTD., priority 2018, dated 2025).
# What was measured:
# [1] = test system: stimulated mouse splenocytes; assay: Cytokine production in stimulated mouse splenocytes (MSD V-PLEX); assay type: cell-based; details: 250 nM, 24 h
# Description: The effect of APG-115 on cytokine production in stimulated mouse splenocytes was investigated. Mouse splenocytes freshly isolated from mice were stimulated with 5 μg/ml plate-bound anti-CD3 and 2 μg/ml anti-CD28 in the presence of APG-115 (250 nM) or DMSO for 24 h. After the treatment, supernatants were collected from the cell cultures and then cytokines were measured by MSD V-PLEX kit which enabled to test 10 cytokines.
# [2] = test system: tumor infiltrating cells in MH-22A syngeneic tumors; assay: TIL analysis by flow cytometry, p53 wt MH-22A syngeneic tumors; assay type: in vivo; details: p53 wt MH-22A tumors
# Description: (§1) The live/dead fixable dye (Invitrogen) was used to exclude dead cells. The FOXP3 kit from eBioscience was used for FOXP3 staining. Cells were washed and stained for 30 min on ice with indicated antibodies in MACS buffer or Brilliant staining buffer. Samples were than analyzed on Life Technology Attune NxT flow cytometer.
# Mice were euthanized on day 7, and tumors were mechanically dissociated and digested with Collagenase IV (Sigma), hyaluronic acid (Sigma) and DNase (Sigma). Single-cell suspensions were prepared and stained against the indicated markers for flow cytometry analysis. Tumor samples were collected 24 hrs post last dosing.
# On d7, when the mean tumor volume reached approximately 300-500 mm3, syngeneic tumors were collected and processed for TIL analysis. […] There were approximately a 1.5 to 2-fold increase relative to the control. […] Most strikingly, the frequency of M2 macrophages was reduced by the combined therapy in comparison with both control (P<0.01) and anti-PD-1 single agent groups (P<0.05).
# [3] = test system: tumor infiltrating cells in MC38 tumors; assay: TIL analysis by flow cytometry, p53mut MC38 tumors; assay type: in vivo
# Description: as §1
# [4] = Phase I study CTR20170975 in Chinese patients: safety; assay type: in vivo, human
# Description: Patients with advanced soft tissue sarcoma (STS), adenoid cystic carcinoma (ACC) or other solid tumors in China (CTR20170975) were treated with APG-115. In dose escalation, patients received APG-115 (100-200 mg) orally QOD for first 21 days of a 28-day cycle, until disease progression. Study objectives include safety (primary endpoint), pharmacokinetics (PK), pharmacodynamics (PD), and antitumor activity assessed every 8 weeks.
# This is a Phase I study (CTR20170975) is designed to assess the safety, dose-limiting toxicities (DLT), the maximum tolerated dose (MTD)/recommended phase 2 dose (RP2D), pharmacokinetics (PK), pharmacodynamics (PD) profile and anti-tumor activity of orally administered APG-115 in Chinese patients with advanced soft tissue sarcoma and other solid tumors.
# Single dose escalation study was conducted. A standard “3+3” design was employed to determine the maximum tolerated dose (MTD) of APG-115 by assessing the dose limiting toxicity (DLT) of APG-115. Three dose levels of APG-115 was tested: 100, 150, 200 mg. APG-115 was administrated orally every other day (QOD) for a consecutive 3 weeks (i.e. dosed at Day 1, 3, 5, 7, 9, 11, 13, 15, 17, 19, and 21), with one week dosing off as 4-weeks a cycle. […] The scheme of the trial design is provided below.
# This study was conducted with an initial dosage of […], according to the preliminary safety results in phase I study of APG-115 in the US.
compound,measurement,setting,value
CCN1[C@@H](C(=O)NC23CCC(C(=O)O)(CC2)CC3)[C@H](c2cccc(Cl)c2F)[C@]2(C(=O)Nc3cc(Cl)ccc32)C12CCCCC2 [APG-115],"expression levels of IL-1β, IL-5, KC/GRO, IL-12p70",[1],below detection limit
same,"inflammatory cytokines including IFN-γ, IL-2, TNF-α, IL-10 and IL-4",[1]; anti-CD3/anti-CD28 stimulated,upregulation
same,"CD4+ T cells, NK cells, MDSCs, and regulatory T (Treg) cells",[2],no significant changes
same,"CD4+ T cells, NK cells, MDSCs, and regulatory T (Treg) cells",[3],no significant changes
same,MTD,"[4]; QOD, 21 days on 7 days off",150 mg
same,Adverse Event: Abdominal distension,"[4]; human, in vivo",2 (14.3%)
same,Adverse Event: Abdominal pain,"[4]; human, in vivo",2 (14.3%)
same,Adverse Event: Anaemia,"[4]; human, in vivo",11 (78.6%)
same,Adverse Event: Any AE,"[4]; human, in vivo",14 (100.0%)
same,Adverse Event: Asthenia,"[4]; human, in vivo",2 (14.3%)
same,Adverse Event: Blood alkaline phosphatase increased,"[4]; human, in vivo",2 (14.3%)
same,Adverse Event: Blood creatinine increased,"[4]; human, in vivo",2 (14.3%)
same,Adverse Event: Cancer pain,"[4]; human, in vivo",2 (14.3%)
same,Adverse Event: Decreased appetite,"[4]; human, in vivo",2 (14.3%)
same,Adverse Event: Febrile neutropenia,"[4]; human, in vivo",2 (14.3%)
same,Adverse Event: Gamma-glutamyltransferase increased,"[4]; human, in vivo",4 (28.6%)
same,Adverse Event: Headache,"[4]; human, in vivo",2 (14.3%)
same,Adverse Event: Hypercholesterolaemia,"[4]; human, in vivo",8 (57.1%)
same,Adverse Event: Hypertriglyceridaemia,"[4]; human, in vivo",5 (35.7%)
same,Adverse Event: Hyperuricaemia,"[4]; human, in vivo",3 (21.4%)
same,Adverse Event: Hypoalbuminaemia,"[4]; human, in vivo",7 (50.0%)
same,Adverse Event: Hypokalaemia,"[4]; human, in vivo",3 (21.4%)
same,Adverse Event: Insomnia,"[4]; human, in vivo",2 (14.3%)
same,Adverse Event: Low density lipoprotein increased,"[4]; human, in vivo",2 (14.3%)
same,Adverse Event: Nausea,"[4]; human, in vivo",5 (35.7%)
same,Adverse Event: Neutrophil count decreased,"[4]; human, in vivo",5 (35.7%)
same,Adverse Event: Oedemaperipheral,"[4]; human, in vivo",3 (21.4%)
same,Adverse Event: Platelet count decreased,"[4]; human, in vivo",9 (64.3%)
same,Adverse Event: Vomiting,"[4]; human, in vivo",8 (57.1%)
same,Adverse Event: White blood cell count decreased,"[4]; human, in vivo",7 (50.0%)
same,Grade 3 Adverse Event: Anaemia,"[4]; human, in vivo",5 (35.7%)
same,Grade 3 Adverse Event: Any AE,"[4]; human, in vivo",10 (71.4%)
same,Grade 3 Adverse Event: Blood creatinine increased,"[4]; human, in vivo",1 (7.1%)
same,Grade 3 Adverse Event: Dyspnoea,"[4]; human, in vivo",1 (7.1%)
same,Grade 3 Adverse Event: Febrile neutropenia,"[4]; human, in vivo",2 (14.3%)
same,Grade 3 Adverse Event: Lipase increased,"[4]; human, in vivo",1 (7.1%)
same,Grade 3 Adverse Event: Neutrophil count decreased,"[4]; human, in vivo",4 (28.6%)
same,Grade 3 Adverse Event: Platelet count decreased,"[4]; human, in vivo",6 (42.9%)
same,Grade 3 Adverse Event: Pulmonary embolism,"[4]; human, in vivo",1 (7.1%)
same,Grade 3 Adverse Event: Ureteric obstruction,"[4]; human, in vivo",1 (7.1%)
same,Grade 3 Adverse Event: Vomiting,"[4]; human, in vivo",2 (14.3%)
same,Grade 3 Adverse Event: White blood cell count decreased,"[4]; human, in vivo",4 (28.6%)
same,Grade 3 or 4 TRAE: anaemia,"[4]; human, in vivo",38.5%
same,Grade 3 or 4 TRAE: leukopenia,"[4]; human, in vivo",30.8%
same,Grade 3 or 4 TRAE: neutropenia,"[4]; human, in vivo",23.1%
same,Grade 3 or 4 TRAE: thrombocytopenia,"[4]; human, in vivo",38.5%
same,RP2D,"[4]; human, in vivo",100 mg
same,"SAE, % of pts","[4]; human, in vivo",54%
same,"SAE, pts","[4]; human, in vivo",7 pts
same,most common Grade 3 or 4 AEs,"[4]; human, in vivo","hematologic toxicities, particularly thrombocytopenia"
